In this assay the target is T1, hSK1 channels (Homo sapiens, UniProt Q92952).
T1 construct: expressed in transfected cells; host or cells: HEK293
The experiment in a line: whole-cell patch-clamp recording of ionic current through SK channels (subtype 1) in HEK293 cells expressing hSK1. The assay is classed as cell-based. The conditions noted are these: Stimulating Concentration required for increasing the baseline current by 100%. The procedure:
The ionic current through small-conductance Ca^2+-activated K^+ channels (SK channels, subtype 1) is recorded using the whole-cell configuration of the patch-clamp technique in a classic patch-clamp set-up using HEK293 tissue culture cells expressing hSK1 channels as described in e.g. WO 2006/100212.
The SC100 value determined is defined as the Stimulating Concentration required for increasing the baseline current by 100%. The below SC100 values are an indication of the SK1 activating properties of the compounds of the invention.
For orientation: The patch-clamp technique gives a direct electrical read-out from membranes.

The record followed here is US8765770B2, “Substituted [1,2,4]triazolo[1,5-a]pyrimidines and their use as potassium channel modulators” (Ataxion, Inc., priority 2009, dated 2014).

In turn, `CON=CNc1nc2nccc(C(C)Oc3ccccc3)n2n1` (centres unmarked) [Example A, N-{7-[1-(Phenoxy)ethyl]-[1,2,4]triazolo[1,5-a]pyrimidin-2-yl}-N′-methoxy-formamidine] returned an SC100 of 0.20 µM.
`CON=CNc1nc2nccc(C(C)Oc3ccccc3C)n2n1` (centres unmarked) [Example 1, N-{7-[1-(2-Methylphenoxy)ethyl]-[1,2,4]triazolo[1,5-a]pyrimidin-2-yl}-N′-methoxy-formamidine] had an SC100 of 0.02 µM.
